According to the supplement of paper PMC10307832:

Legend:
Test in all cases: relative viability (nuclei count vs DMSO), 5 days (fraction); higher = more cells survive
CX-5461 + Trametinib = compound: Cc1cnc(CNC(=O)c2c(=O)c3ccc(N4CCCN(C)CC4)nc3n3c2sc2ccccc23)cn1 [CX-5461] + CC(=O)Nc1cccc(-n2c(=O)n(C3CC3)c(=O)c3c(Nc4ccc(I)cc4F)n(C)c(=O)c(C)c32)c1 [Trametinib] (partner 0.02 µM)
In short: (§1)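 Lung cancer cell lines in 1536-well plates were dosed by pin tool the day after seeding, either with one drug alone or with a fixed anchor-drug dose plus five library-drug doses (not always all listed) in √10 steps. After 5 days, cells were fixed and their nuclei stained in one step (final 0.05% Triton X-100, 1% formaldehyde, 1 ug/ml Hoechst), then counted on 4× images. Relative viability is the nuclei count in treated wells divided by that in vehicle wells. Values are medians of duplicate plates.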

CX-5461 + Lapatinib = compound: Cc1cnc(CNC(=O)c2c(=O)c3ccc(N4CCCN(C)CC4)nc3n3c2sc2ccccc23)cn1 [CX-5461] + CS(=O)(=O)CCNCc1ccc(-c2ccc3ncnc(Nc4ccc(OCc5cccc(F)c5)c(Cl)c4)c3c2)o1 [Lapatinib] (partner 2 µM)
In short: as §1

CX-5461 + Pictilisib = compound: Cc1cnc(CNC(=O)c2c(=O)c3ccc(N4CCCN(C)CC4)nc3n3c2sc2ccccc23)cn1 [CX-5461] + CS(=O)(=O)N1CCN(Cc2cc3nc(-c4cccc5[nH]ncc45)nc(N4CCOCC4)c3s2)CC1 [Pictilisib] (partner 1 µM)
In short: as §1

IMD-0354 + Trametinib = compound: O=C(Nc1cc(C(F)(F)F)cc(C(F)(F)F)c1)c1cc(Cl)ccc1O [IMD-0354] + CC(=O)Nc1cccc(-n2c(=O)n(C3CC3)c(=O)c3c(Nc4ccc(I)cc4F)n(C)c(=O)c(C)c32)c1 [Trametinib] (partner 0.02 µM)
In short: as §1

**Q.** UMC-11 was tested. Which relative viability (CX-5461 + Trametinib; first compound 0.01 µM) did it give?
**A.** 0.685

**Q.** And the relative viability (CX-5461 + Trametinib; first compound 0.03162 µM)?
**A.** 0.769

**Q.** And the relative viability (CX-5461 + Trametinib; first compound 0.1 µM)?
**A.** 0.762

**Q.** And the relative viability (CX-5461 + Trametinib; first compound 0.3162 µM)?
**A.** 0.317

**Q.** And the relative viability (CX-5461 + Trametinib; first compound 1 µM)?
**A.** 0.249

**Q.** And the relative viability (CX-5461 + Lapatinib; first compound 0.01 µM)?
**A.** 1.07

**Q.** And the relative viability (CX-5461 + Lapatinib; first compound 0.03162 µM)?
**A.** 1.01

**Q.** And the relative viability (CX-5461 + Lapatinib; first compound 0.1 µM)?
**A.** 0.855

**Q.** And the relative viability (CX-5461 + Lapatinib; first compound 0.3162 µM)?
**A.** 0.454

**Q.** And the relative viability (CX-5461 + Lapatinib; first compound 1 µM)?
**A.** 0.269

**Q.** And the relative viability (CX-5461 + Pictilisib; first compound 0.01 µM)?
**A.** 0.869

**Q.** And the relative viability (CX-5461 + Pictilisib; first compound 0.03162 µM)?
**A.** 0.835

**Q.** What about the relative viability (CX-5461 + Pictilisib; first compound 0.1 µM) of the same cell line?
**A.** 0.76

**Q.** And the relative viability (CX-5461 + Pictilisib; first compound 0.3162 µM)?
**A.** 0.149

**Q.** What about the relative viability (CX-5461 + Pictilisib; first compound 1 µM) of the same cell line?
**A.** 0.259

**Q.** And the relative viability (IMD-0354 + Trametinib; first compound 0.04 µM)?
**A.** 0.745

**Q.** And the relative viability (IMD-0354 + Trametinib; first compound 0.1265 µM)?
**A.** 0.808

**Q.** What about the relative viability (IMD-0354 + Trametinib; first compound 0.4 µM) of the same cell line?
**A.** 0.337

**Q.** What about the relative viability (IMD-0354 + Trametinib; first compound 1.265 µM) of the same cell line?
**A.** 0.194

**Q.** What about the relative viability (IMD-0354 + Trametinib; first compound 4 µM) of the same cell line?
**A.** 0.246
